How the values were obtained:
Type in all cases: in vivo
[1] = system: barnyardgrass (Echinochloa crus-galli); assay: Test G Pre-Emergence Protocol; conditions: Echinochloa crus-galli, pre-emergence, 312 h, evaluated after 13 days; for pest or weed control at 15.625 g/ha: 15.625 g ai/ha, read-out: Barnyard grass damage rating (100=total damage to plant; 0=no damage to plant); for pest or weed control at 62.5 g/ha: 62.5 g ai/ha, 100=total damage to plant, 0=no damage to plant, read-out: plant damage rating, Barnyardgrass; for pest or weed control at 250 g/ha: 250 g ai/ha, read-out: Barnyardgrass damage rating (100=total damage to plant; 0=no damage to plant)
Method in brief: (§1)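 Under a 24/16° C day/night regime with 14 h light and 65% humidity, sown pots were sprayed after one day with compound (15.625, 62.5 or 250 g/ha; 50:50 acetone/water, 0.5% Tween 20). Damage was assessed visually 13 days later, 0 to 100.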

[2] = system: corn (Zea mays); assay: Test G Pre-Emergence Protocol; conditions: Zea mays, pre-emergence, 312 h, evaluated after 13 days; for plant injury at 15.625 g/ha: 15.625 g ai/ha; for plant injury at 15.625 g/ha / plant injury at 250 g/ha: read-out: Corn damage rating (100=total damage to plant; 0=no damage to plant); for plant injury at 62.5 g/ha: 62.5 g ai/ha, 100=total damage to plant, 0=no damage to plant, read-out: plant damage rating, Corn; for plant injury at 250 g/ha: 250 g ai/ha
Method in brief: as §1

[3] = system: giant foxtail (Setaria faberi); assay: Test G Pre-Emergence Protocol; conditions: Setaria faberi, pre-emergence, 312 h, evaluated after 13 days; for pest or weed control at 15.625 g/ha: 15.625 g ai/ha; for pest or weed control at 15.625 g/ha / pest or weed control at 250 g/ha: read-out: Foxtail, Giant damage rating (100=total damage to plant; 0=no damage to plant); for pest or weed control at 62.5 g/ha: 62.5 g ai/ha, 100=total damage to plant, 0=no damage to plant, read-out: plant damage rating, Foxtail, Giant; for pest or weed control at 250 g/ha: 250 g ai/ha
Method in brief: as §1

[4] = system: ivy-leaved morning glory (Ipomoea hederacea); assay: Test G Pre-Emergence Protocol; conditions: Ipomoea, pre-emergence, 312 h, evaluated after 13 days; for pest or weed control at 15.625 g/ha: 15.625 g ai/ha, read-out: Morning-glory, Ivy-leaved damage rating (100=total damage to plant; 0=no damage to plant); for pest or weed control at 62.5 g/ha: 62.5 g ai/ha, 100=total damage to plant, 0=no damage to plant, read-out: plant damage rating, Morningglory, Ivy-leaved; for pest or weed control at 250 g/ha: 250 g ai/ha, read-out: Morningglory, Ivy-leaved damage rating (100=total damage to plant; 0=no damage to plant)
Method in brief: as §1

[5] = system: redroot pigweed (Amaranthus retroflexus); assay: Test G Pre-Emergence Protocol; conditions: Amaranthus retroflexus, pre-emergence, 312 h, evaluated after 13 days; for pest or weed control at 15.625 g/ha: 15.625 g ai/ha; for pest or weed control at 15.625 g/ha / pest or weed control at 250 g/ha: read-out: Pigweed, Redroot damage rating (100=total damage to plant; 0=no damage to plant); for pest or weed control at 62.5 g/ha: 62.5 g ai/ha, 100=total damage to plant, 0=no damage to plant, read-out: plant damage rating, Pigweed, Redroot; for pest or weed control at 250 g/ha: 250 g ai/ha
Method in brief: as §1

[6] = system: velvetleaf (Abutilon theophrasti); assay: Test G Pre-Emergence Protocol; conditions: Abutilon theophrasti, pre-emergence, 312 h, evaluated after 13 days; for pest or weed control at 15.625 g/ha: 15.625 g ai/ha; for pest or weed control at 15.625 g/ha / pest or weed control at 250 g/ha: read-out: Velvetleaf damage rating (100=total damage to plant; 0=no damage to plant); for pest or weed control at 62.5 g/ha: 62.5 g ai/ha, 100=total damage to plant, 0=no damage to plant, read-out: plant damage rating, Velvetleaf; for pest or weed control at 250 g/ha: 250 g ai/ha
Method in brief: as §1

[7] = system: barnyardgrass (Echinochloa crus-galli); assay: Test G Post-Emergence Protocol; conditions: Echinochloa crus-galli, post-emergence, 312 h; for pest or weed control at 15.625 g/ha: 15.625 g ai/ha, evaluated after 13 days (100=total damage to plant; 0=no damage to plant), read-out: Barnyardgrass damage rating; for pest or weed control at 62.5 g/ha: 62.5 g ai/ha, read-out: Barnyardgrass damage rating (100=total damage to plant; 0=no damage to plant); for pest or weed control at 62.5 g/ha / pest or weed control at 250 g/ha: evaluated after 13 days; for pest or weed control at 250 g/ha: 250 g ai/ha, read-out: damage to plant, Barnyardgrass (100=total damage to plant; 0=no damage to plant)
Method in brief: (§2)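 Eight days post-sowing, plants received a spray of test compound (acetone/water 50:50, 0.5% Tween 20) at 15.625, 62.5 or 250 g/ha. Glasshouse regime thereafter: 24/16 °C, 14 h light, 65% humidity. Assessment after 13 days on a 0–100 damage scale.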

[8] = system: corn (Zea mays); assay: Test G Post-Emergence Protocol; conditions: Zea mays, post-emergence, 312 h; for plant injury at 15.625 g/ha: 15.625 g ai/ha, evaluated after 13 days (100=total damage to plant; 0=no damage to plant), read-out: Corn damage rating; for plant injury at 62.5 g/ha: 62.5 g ai/ha, read-out: Corn damage rating (100=total damage to plant; 0=no damage to plant); for plant injury at 62.5 g/ha / plant injury at 250 g/ha: evaluated after 13 days; for plant injury at 250 g/ha: 250 g ai/ha, read-out: damage to plant, Corn (100=total damage to plant; 0=no damage to plant)
Method in brief: as §2

[9] = system: giant foxtail (Setaria faberi); assay: Test G Post-Emergence Protocol; conditions: Setaria faberi, post-emergence, 312 h; for pest or weed control at 15.625 g/ha: 15.625 g ai/ha, evaluated after 13 days (100=total damage to plant; 0=no damage to plant), read-out: Foxtail, Giant damage rating; for pest or weed control at 62.5 g/ha: 62.5 g ai/ha, read-out: Foxtail, Giant damage rating (100=total damage to plant; 0=no damage to plant); for pest or weed control at 62.5 g/ha / pest or weed control at 250 g/ha: evaluated after 13 days; for pest or weed control at 250 g/ha: 250 g ai/ha, read-out: damage to plant, Foxtail, Giant (100=total damage to plant; 0=no damage to plant)
Method in brief: as §2

[10] = system: ivy-leaved morning glory (Ipomoea hederacea); assay: Test G Post-Emergence Protocol; conditions: Ipomoea, post-emergence, 312 h; for pest or weed control at 15.625 g/ha: 15.625 g ai/ha, evaluated after 13 days (100=total damage to plant; 0=no damage to plant), read-out: Morningglory, Ivy-leaved damage rating; for pest or weed control at 62.5 g/ha: 62.5 g ai/ha, read-out: Morningglory, Ivy-leaved damage rating (100=total damage to plant; 0=no damage to plant); for pest or weed control at 62.5 g/ha / pest or weed control at 250 g/ha: evaluated after 13 days; for pest or weed control at 250 g/ha: 250 g ai/ha, read-out: damage to plant, Morningglory, Ivy-leaved (100=total damage to plant; 0=no damage to plant)
Method in brief: as §2

[11] = system: redroot pigweed (Amaranthus retroflexus); assay: Test G Post-Emergence Protocol; conditions: Amaranthus retroflexus, post-emergence, 312 h; for pest or weed control at 15.625 g/ha: 15.625 g ai/ha, evaluated after 13 days (100=total damage to plant; 0=no damage to plant), read-out: Pigweed, Redroot damage rating; for pest or weed control at 62.5 g/ha: 62.5 g ai/ha, read-out: Pigweed, Redroot damage rating (100=total damage to plant; 0=no damage to plant); for pest or weed control at 62.5 g/ha / pest or weed control at 250 g/ha: evaluated after 13 days; for pest or weed control at 250 g/ha: 250 g ai/ha, read-out: damage to plant, Pigweed, Redroot (100=total damage to plant; 0=no damage to plant)
Method in brief: as §2

[12] = system: velvetleaf (Abutilon theophrasti); assay: Test G Post-Emergence Protocol; conditions: Abutilon theophrasti, post-emergence, 312 h; for pest or weed control at 15.625 g/ha: 15.625 g ai/ha, evaluated after 13 days (100=total damage to plant; 0=no damage to plant), read-out: Velvetleaf damage rating; for pest or weed control at 62.5 g/ha: 62.5 g ai/ha, read-out: Velvetleaf damage rating (100=total damage to plant; 0=no damage to plant); for pest or weed control at 62.5 g/ha / pest or weed control at 250 g/ha: evaluated after 13 days; for pest or weed control at 250 g/ha: 250 g ai/ha, read-out: damage to plant, Velvetleaf (100=total damage to plant; 0=no damage to plant)
Method in brief: as §2

SMILES	pest or weed control at 15.625 g/ha [1] [%]	pest or weed control at 62.5 g/ha [1] [%]	pest or weed control at 250 g/ha [1] [%]	plant injury at 15.625 g/ha [2] [%]	plant injury at 62.5 g/ha [2] [%]	plant injury at 250 g/ha [2] [%]	pest or weed control at 15.625 g/ha [3] [%]	pest or weed control at 62.5 g/ha [3] [%]	pest or weed control at 250 g/ha [3] [%]	pest or weed control at 15.625 g/ha [4] [%]	pest or weed control at 62.5 g/ha [4] [%]	pest or weed control at 250 g/ha [4] [%]	pest or weed control at 15.625 g/ha [5] [%]	pest or weed control at 62.5 g/ha [5] [%]	pest or weed control at 250 g/ha [5] [%]	pest or weed control at 15.625 g/ha [6] [%]	pest or weed control at 62.5 g/ha [6] [%]	pest or weed control at 250 g/ha [6] [%]	pest or weed control at 15.625 g/ha [7] [%]	pest or weed control at 62.5 g/ha [7] [%]	other results
CN1C[C@@H](c2ccc(C(F)(F)F)cc2)[C@H](C(=O)Nc2cnn(C)n2)C1=O (racemic) [Compound 1531]	0	0	0	0	0	0	0	0	0	0	0	0	0	0	0	0	0	0	0	0	pest or weed control at 250 g/ha [7]: 0%; plant injury at 15.625 g/ha [8]: 0%; plant injury at 62.5 g/ha [8]: 0%; plant injury at 250 g/ha [8]: 10%; pest or weed control at 15.625 g/ha [9]: 0%; pest or weed control at 62.5 g/ha [9]: 0%; pest or weed control at 250 g/ha [9]: 0%; pest or weed control at 15.625 g/ha [10]: 0%; pest or weed control at 62.5 g/ha [10]: 0%; pest or weed control at 250 g/ha [10]: 0%; pest or weed control at 15.625 g/ha [11]: 0%; pest or weed control at 62.5 g/ha [11]: 0%; pest or weed control at 250 g/ha [11]: 0%; pest or weed control at 15.625 g/ha [12]: 0%; pest or weed control at 62.5 g/ha [12]: 0%; pest or weed control at 250 g/ha [12]: 0%
CN1C[C@@H](c2ccc(C(F)(F)F)cc2)[C@H](C(=O)Nc2cccc(C(F)(F)F)n2)C1=O (racemic) [Compound 1563]	0	0	0	0	0	0	0	0	0	0	0	0	0	0	0	0	0	0	0	0	pest or weed control at 250 g/ha [7]: 0%; plant injury at 15.625 g/ha [8]: 0%; plant injury at 62.5 g/ha [8]: 0%; plant injury at 250 g/ha [8]: 0%; pest or weed control at 15.625 g/ha [9]: 0%; pest or weed control at 62.5 g/ha [9]: 0%; pest or weed control at 250 g/ha [9]: 0%; pest or weed control at 15.625 g/ha [10]: 0%; pest or weed control at 62.5 g/ha [10]: 0%; pest or weed control at 250 g/ha [10]: 0%; pest or weed control at 15.625 g/ha [11]: 0%; pest or weed control at 62.5 g/ha [11]: 0%; pest or weed control at 250 g/ha [11]: 0%; pest or weed control at 15.625 g/ha [12]: 0%; pest or weed control at 62.5 g/ha [12]: 0%; pest or weed control at 250 g/ha [12]: 0%
CN1C[C@@H](c2ccc(C(F)(F)F)cc2)[C@H](C(=O)Nc2ccccc2C#N)C1=O (racemic) [Compound 1599]	0	70	70	0	10	40	20	60	80	10	10	10	0	40	70	0	30	20	10	70	pest or weed control at 250 g/ha [7]: 70%; plant injury at 15.625 g/ha [8]: 0%; plant injury at 62.5 g/ha [8]: 0%; plant injury at 250 g/ha [8]: 40%; pest or weed control at 15.625 g/ha [9]: 60%; pest or weed control at 62.5 g/ha [9]: 80%; pest or weed control at 250 g/ha [9]: 80%; pest or weed control at 15.625 g/ha [10]: 50%; pest or weed control at 62.5 g/ha [10]: 60%; pest or weed control at 250 g/ha [10]: 50%; pest or weed control at 15.625 g/ha [11]: 0%; pest or weed control at 62.5 g/ha [11]: 50%; pest or weed control at 250 g/ha [11]: 50%; pest or weed control at 15.625 g/ha [12]: 0%; pest or weed control at 62.5 g/ha [12]: 30%; pest or weed control at 250 g/ha [12]: 40%

Reference: patent US12077503B2, “Substituted cyclic amides and their use as herbicides” (FMC CORPORATION, priority 2015, dated 2024)
